Reference: US10723709B2, “Protease inhibitors” (MEDIVIR AB, priority 2008, dated 2020)

Tests used:
[1] = In vivo mouse PK, oral administration (FIG. 1); set-up: species or system male C57Bl mice; settings: mice, orally administered 60 μmol/kg in 1% Methocel A4C vehicle; compared with Example 2 of WO2008 007107
Source text: FIG. 1 depicts plasma concentration against time for male C57Bl mice orally administered a compound of the invention or a compound of the prior art.
Various embodiments of the invention will now be described by way of illustration only with reference to the following Examples and FIG. 1 which depicts plasma concentration against time for male C57Bl mice orally administered a compound of the invention or a compound of the prior art.

[2] = reference markers of the permeability assay; cited from earlier work
[3] = tested on: Caco-2 cells
Method: This experiment measures transport of inhibitors through the cells of the human gastroenteric canal. The assay uses the well known Caco-2 cells with a passage number between 40 and 60.
Apical to Basolateral Transport
The basolateral and the apical wells will contain 1.5 mL and 0.4 mL transport buffer (TB), respectively, and the standard concentration of the tested substances is 10 μM. Furthermore all test solutions and buffers will contain 1% DMSO. Prior to the experiment the transport plates are pre-coated with culture medium containing 10% serum for 30 minutes to avoid nonspecific binding to plastic material. After 21 to 28 days in culture on filter supports the cells are ready for permeability experiments. […]
0.5 mL transport buffer (HBSS, 25 mM MES, pH 6.5) is added to the inserts and the cell monolayers equilibrated in the transport buffer system for 30 minutes at 37° C. in a polymix shaker. After being equilibrated to the buffer system the Transepithelial electrical resistance value (TEER) is measured in each well by an EVOM chop stick instrument. […]
300 μL will be taken from the basolateral (receiver) wells at each scheduled time point and the post value of TEER is measured at the end the experiment. […]
Determination of the cumulative fraction absorbed, FAcum, versus time. FAcum is calculated from: […]
The determination of permeability coefficients (Papp, cm/s) are calculated from: […]

## C#C[C@@H]1CN(C(=O)[C@H](CC(C)C)NC(=O)c2ccc(-c3nc(N4CCN(C)CC4)sc3F)cc2)[C@@H]2C(=O)CO[C@H]12 [Example 2, N-[1-6-(ethynyl-3-oxo-hexahydro-furo[3,2-b]pyrrole-4-carbonyl)-3-methyl-butyl]-4-[5-fluoro-2-(4-methyl-piperazin-1-yl)thiazol-4-yl]-benzamide]
[1]
  in vivo exposure (whether measured as Cmax or AUC): very much greater

## N[C@@H](Cc1ccccc1)C(=O)O [L-Phenylalanine]
[2]
  % absorption in man: 100%

## OC[C@@H](O)[C@@H](O)[C@H](O)[C@H](O)CO [Mannitol]
[2]
  % absorption in man: 16%

## CN(Cc1cnc2nc(N)nc(N)c2n1)c1ccc(C(=O)N[C@@H](CCC(=O)O)C(=O)O)cc1 [Methotrexate]
[2]
  % absorption in man: 20%

## N—((S)-1-((3aS, 6R, 6aS)-6-methoxy-oxodihydro-2H-furo[3,2-b]pyrrol-4(5H, 6H, 6aH)-yl)-4-methyl-oxopentan-2-yl)-4-(2-(4-methylpiperazine-1-yl)thiazol-4-yl)benzamide
[3]
  papp value: 9e-07 cm/s
